The source of these data is US11008323B2, “Substituted tricyclic 1,4-benzodiazepinone derivatives as allosteric modulators of group II metabotropic glutamate receptors” (Domain Therapeutics, priority 2015, dated 2021).

Usually melting point stands for the temperature of the solid-liquid transition.

Counter-ions that a name gives are not always drawn.

In turn, `CN1C(=O)c2cccn2-c2cc(-c3cccnc3C3CC3)ccc2C12CC2` (as salt: hydrochloride) [Example 62, 5-Methyl-9-(2-cyclopropylpyridin-3-yl)-spiro[benzo[f]pyrrolo[1,2-a][1,4]diazepine-6,1′-cyclopropan]-4(5H)-one] gave a melting point of 160 to 180 °C.

`Cc1ccnc(C)c1-c1ccc2c(c1)-n1cccc1C(=O)N(C)C21CC1` (as salt: hydrochloride) [Example 65, 5-Methyl-9-(2,4-dimethylpyridin-3-yl)-spiro[benzo[f]pyrrolo[1,2-a][1,4]diazepine-6,1′-cyclopropan]-4(5H)-one] came in with a melting point of 200 to 208 °C.

As to `Cc1ncccc1-c1cc(F)c2c(c1)-n1cccc1C(=O)N(C)C21CC1` (as salt: hydrochloride) [Example 73, 7-Fluoro-5-methyl-9-(2-methyl-pyridin-3-yl)-spiro[benzo[f]pyrrolo[1,2-a][1,4]diazepine-6,1′-cyclopropan]-4(5H)-one], the melting point was in the range of 174 to 188 °C.

In the case of `Cc1ncccc1-c1ccc2c(c1F)-n1cccc1C(=O)N(C)C21CC1` (as salt: hydrochloride) [Example 75, 10-Fluoro-5-methyl-9-(2-methyl-pyridin-3-yl)-spiro[benzo[f]pyrrolo[1,2-a][1,4]diazepine-6,1′-cyclopropan]-4(5H)-one], the melting point lay within 166 to 184 °C.

With `Cc1ncccc1-c1cc2c(cc1F)C1(CC1)N(C)C(=O)c1cccn1-2` (as salt: hydrochloride) [Example 77, 8-Fluoro-5-methyl-9-(2-methyl-pyridin-3-yl)-spiro[benzo[f]pyrrolo[1,2-a][1,4]diazepine-6,1′-cyclopropan]-4(5H)-one], the melting point is 200 to 210 °C.

`Cc1ncccc1-c1ccc2c(c1)-n1c(F)ccc1C(=O)N(C)C21CC1` (as salt: hydrochloride) [Example 81, 9-(2-Methyl-pyridin-3-yl)-1-fluoro-5-methyl-spiro[benzo[f]pyrrolo[1,2-a][1,4]diazepine-6,1′-cyclopropan]-4(5H)-one] showed a melting point of 150 to 158 °C.

In the case of `Cc1ncccc1-c1cccc2c1-n1cccc1C(=O)N(C)C21CC1` (as salt: hydrochloride) [Example 92, 10-(2-Methyl-pyridin-3-yl)-5-methyl-spiro[benzo[f]pyrrolo[1,2-a][1,4]diazepine-6,1′-cyclopropan]-4(5H)-one], the melting point came to 250 °C.

The compound `CN1C(=O)c2cc(-c3ccccc3)cn2-c2cc(-c3cccnc3)ccc2C12CC2` (as salt: hydrochloride) [Example 93, 5-Methyl-2-phenyl-9-pyridin-3-yl-spiro[benzo[f]pyrrolo[1,2-a][1,4]diazepine-6,1′-cyclopropan]-4(5H)-one] returned a melting point of 218 to 222 °C.

Compound `Cc1ncccc1-c1ccc2c(c1)-n1cc(-c3ccccc3)cc1C(=O)N(C)C21CC1` (as salt: hydrochloride) [Example 95, 5-Methyl-2-phenyl-9-(2-methyl-pyridin-3-yl)-spiro[benzo[f]pyrrolo[1,2-a][1,4]diazepine-6,1′-cyclopropan]-4(5H)-one] displayed a melting point of 174 to 180 °C.

For the compound `CN1C(=O)c2cc(-c3ccccc3)cn2-c2cc(-c3ccc(N)nc3)ccc2C12CC2` (as salt: hydrochloride) [Example 96, 5-Methyl-2-phenyl-9-(6-amino-pyridin-3-yl)-spiro[benzo[f]pyrrolo[1,2-a][1,4]diazepine-6,1′-cyclopropan]-4(5H)-one], the melting point is over 250 °C.

Regarding `Cc1cc(-c2ccc3c(c2)-n2cc(-c4ccccc4)cc2C(=O)N(C)C32CC2)cc(C)n1` (as salt: hydrochloride) [Example 97, 5-Methyl-2-phenyl-9-(2,6-dimethyl-pyridin-4-yl)-spiro[benzo[f]pyrrolo[1,2-a][1,4]diazepine-6,1′-cyclopropan]-4(5H)-one], the melting point was 227 to 234 °C.

With `Cc1cncc(-c2ccc3c(c2)-n2cc(-c4ccccc4)cc2C(=O)N(C)C32CC2)c1` (as salt: hydrochloride) [Example 98, 5-Methyl-2-phenyl-9-(5-methyl-pyridin-3-yl)-spiro[benzo[f]pyrrolo[1,2-a][1,4]diazepine-6,1′-cyclopropan]-4(5H)-one], the melting point is 212 to 220 °C.

As to `CCc1ncccc1-c1ccc2c(c1)-n1cc(-c3ccccc3)cc1C(=O)N(C)C21CC1` (as salt: hydrochloride) [Example 99, 5-Methyl-2-phenyl-9-(2-ethyl-pyridin-3-yl)-spiro[benzo[f]pyrrolo[1,2-a][1,4]diazepine-6,1′-cyclopropan]-4(5H)-one], the melting point was 179 to 183 °C.

Regarding `Cc1ccncc1-c1ccc2c(c1)-n1cc(-c3ccccc3)cc1C(=O)N(C)C21CC1` (as salt: hydrochloride) [Example 101, 5-Methyl-2-phenyl-9-(4-methyl-pyridin-3-yl)-spiro[benzo[f]pyrrolo[1,2-a][1,4]diazepine-6,1′-cyclopropan]-4(5H)-one], the melting point was 205 to 217 °C.

`CN1C(=O)c2cc(-c3ccccc3)cn2-c2cc(-c3ccncc3)ccc2C12CC2` (as salt: hydrochloride) [Example 102, 5-Methyl-2-phenyl-9-(pyridin-4-yl)-spiro[benzo[f]pyrrolo[1,2-a][1,4]diazepine-6,1′-cyclopropan]-4(5H)-one] showed a melting point of 220 to 230 °C.

Compound `Cc1ccc(-c2ccc3c(c2)-n2cc(-c4ccccc4)cc2C(=O)N(C)C32CC2)cn1` (as salt: hydrochloride) [Example 103, 5-Methyl-2-phenyl-9-(6-methyl-pyridin-3-yl)-spiro[benzo[f]pyrrolo[1,2-a][1,4]diazepine-6,1′-cyclopropan]-4(5H)-one] gave a melting point of 200 to 215 °C.

On to `CN1C(=O)c2cc(-c3ccccc3)cn2-c2cc(-c3cncnc3)ccc2C12CC2` (as salt: hydrochloride) [Example 104, 5-Methyl-2-phenyl-9-(pyrimidin-5-yl)-spiro[benzo[f]pyrrolo[1,2-a][1,4]diazepine-6,1′-cyclopropan]-4(5H)-one], for which the melting point is 168 to 173 °C.

`Cc1cc(-c2ccc3c(c2)-n2cc(-c4ccccc4)cc2C(=O)N(C)C32CC2)ccn1` (as salt: hydrochloride) [Example 105, 5-Methyl-2-phenyl-9-(2-methyl-pyridin-4-yl)-spiro[benzo[f]pyrrolo[1,2-a][1,4]diazepine-6,1′-cyclopropan]-4(5H)-one]: the melting point fell in the range of 225 to 235 °C.

For the compound `Cc1ccc(-c2ccc3c(c2)-n2cc(-c4ccccc4)cc2C(=O)N(C)C32CC2)c(C)n1` (as salt: hydrochloride) [Example 107, 5-Methyl-2-phenyl-9-(2,6-dimethyl-pyridin-3-yl)-spiro[benzo[f]pyrrolo[1,2-a][1,4]diazepine-6,1′-cyclopropan]-4(5H)-one], the melting point lay within 206 to 214 °C.

For `CN1C(=O)c2cc(-c3ccccc3)cn2-c2cc(-c3ccccn3)ccc2C12CC2` (as salt: hydrochloride) [Example 111, 5-Methyl-2-phenyl-9-(pyridin-2-yl)-spiro[benzo[f]pyrrolo[1,2-a][1,4]diazepine-6,1′-cyclopropan]-4(5H)-one], the melting point lay in the range of 185 to 198 °C.

`CCc1ccc(-c2ccc3c(c2)-n2cc(-c4ccccc4)cc2C(=O)N(C)C32CC2)cn1` (as salt: hydrochloride) [Example 112, 5-methyl-2-phenyl-9-(6-ethylpyridin-3-yl)-spiro[benzo[f]pyrrolo[1,2-a][1,4]diazepine-6,1′-cyclopropan]-4(5H)-one] came in with a melting point of 209 to 212 °C.

With `CN(C)c1ccc(-c2ccc3c(c2)-n2cc(-c4ccccc4)cc2C(=O)N(C)C32CC2)cn1` (as salt: hydrochloride) [Example 114, 5-Methyl-2-phenyl-9-(6-dimethylamino-pyridin-3-yl)-spiro[benzo[f]pyrrolo[1,2-a][1,4]diazepine-6,1′-cyclopropan]-4(5H)-one], the melting point was in the range of 200 to 208 °C.

`CN(C)c1ccc2c(c1)-n1cc(-c3ccccc3)cc1C(=O)N(C)C21CC1` (as salt: hydrochloride) [Example 115, 9-Dimethylamino-5-methyl-2-phenyl-spiro[benzo[f]pyrrolo[1,2-a][1,4]diazepine-6,1′-cyclopropan]-4(5H)-one] gave a melting point of 160 to 170 °C.

`CNc1ccc(-c2ccc3c(c2)-n2cc(-c4ccccc4)cc2C(=O)N(C)C32CC2)cn1` (as salt: hydrochloride) [Example 118, 5-Methyl-2-phenyl-9-(6-methylamino-pyridin-3-yl)-spiro[benzo[f]pyrrolo[1,2-a][1,4]diazepine-6,1′-cyclopropan]-4(5H)-one] gave a melting point of over 250 °C.

In turn, `CN(C)c1ncccc1-c1ccc2c(c1)-n1cc(-c3ccccc3)cc1C(=O)N(C)C21CC1` (as salt: hydrochloride) [Example 119, 5-Methyl-2-phenyl-9-(2-dimethylamino-pyridin-3-yl)-spiro[benzo[f]pyrrolo[1,2-a][1,4]diazepine-6,1′-cyclopropan]-4(5H)-one] gave a melting point of 209 to 213 °C.

For `Cc1cc(-c2ccc3c(c2)-n2nc(-c4ccccc4)cc2C(=O)N(C)C32CC2)cc(C)n1` (as salt: hydrochloride) [Example 121, 9-(2,6-Dimethyl-pyridin-4-yl)-5-methyl-2-phenyl-spiro[benzo[f]pyrazolo[1,5-a][1,4]diazepine-6,1′-cyclopropan]-4(5H)-one], the melting point is over 250 °C.

As for `Cc1cc(-c2ccc3c(c2)-n2nc(-c4ccccc4)cc2C(=O)N(C)C32CC2)ccn1` (as salt: hydrochloride) [Example 122, 9-(2-Methyl-pyridin-4-yl)-5-methyl-2-phenyl-spiro[benzo[f]pyrazolo[1,5-a][1,4]diazepine-6,1′-cyclopropan]-4(5H)-one], the melting point is over 250 °C.

In turn, `Cc1ncccc1-c1ccc2c(c1)-n1nc(-c3ccccc3)cc1C(=O)N(C)C21CC1` (as salt: hydrochloride) [Example 125, 9-(2-Methyl-pyridin-3-yl)-5-methyl-2-phenyl-spiro[benzo[f]pyrazolo[1,5-a][1,4]diazepine-6,1′-cyclopropan]-4(5H)-one] yielded a melting point of 185 to 206 °C.
